The source of these data is patent publication US20230126310A1 (priority 2020, published 2023).

The structures appear in SMILES notation. Counter-ions that a name gives are not always drawn. Like-named read-outs stand apart in the source and are kept apart here.

As usually defined, the CC50 is the concentration that lowers cell viability or growth by half. Read a high CC50 as better tolerance by the cells. In general, inhibition refers to the drop in the measured response relative to a control, in per cent.

Data set [1] in a line: Compound cytotoxicity against CaCo-2 cells at 48 hours. The note with it: human, CaCo-2 cells; Table 5, further results of Examples 1 and 2; mean ± spread. The format is cell-based, Human. The procedure: The cytotoxicity of the profiled compounds towards CaCo-2 cells at 48 hours was assessed. […] After 48 hours, cytotoxicity was evaluated using both digital phase contrast readout as described above and ATP determination (Cell titre-glo, Promega Corp).

The subject of a further data set is SARS-CoV-2. Kind of data set: microbe, parasite or virus in culture. The note with it: Severe acute respiratory syndrome coronavirus 2, Caco-2, 48 h; for inhibition at 10 µM: read-out: % Inh. (% Inhibition of SARS-CoV-2).

As for `CC1=C(CCC(=O)O)c2cc3[nH]c(cc4nc(cc5[nH]c(cc1n2)c(C)c5C(C)O)C(C)=C4C(C)O)c(C)c3CCC(=O)O` (stereo not shown) [hematoporphyrin], half-maximal cytotoxicity in data set [1] (CC50 at 48 h) was put at 160 ± 139 µM. Besides, in the data set with SARS-CoV-2, the inhibition at 10 µM came out at 96.8%.
Take `CCCCCCCCN=c1ccn(CCCCCCCCCCn2ccc(=NCCCCCCCC)cc2)cc1` [Octenidine Dihydrochloride]: it took 2.4 ± 0.09 µM to reach half-maximal cytotoxicity in data set [1] (CC50 at 48 h). The figures for the IC50 in the data set on SARS-CoV-2 and in the data set with SARS-CoV-2 (read-out: pIC50 (converted)) were 1.14 µM and 1.15 µM, respectively. For the same molecule, the inhibition at 10 µM in the data set on SARS-CoV-2 amounted to 77%.
On to `Cc1nc2ccccc2n1Cc1ccc(Cl)cc1` [CHLORMIDAZOLE], for which the midpoint of cytotoxicity in data set [1], the CC50 at 48 h, lay at 0.88 ± 0.82 µM. This molecule returned an IC50 with SARS-CoV-2 above 1 µM.
`S=C(NCc1ccc2c(c1)OCO2)N1CCN(c2ncnc3c2oc2ccccc23)CC1` [Amuvatinib (MP-470), Amuvatinib]: the midpoint of cytotoxicity in data set [1], the CC50 at 48 h, lay at 0.06 ± 0.01 µM. In the data set with SARS-CoV-2 (read-out: pIC50 (converted)), the IC50 is 0.0302 µM.
For the molecule `CNC(=O)c1cc(Oc2ccc(NC(=O)Nc3ccc(Cl)c(C(F)(F)F)c3)c(F)c2)ccn1` [Regorafenib (BAY 73-4506), Regorafenib], in data set [1], half-maximal cytotoxicity (CC50 at 48 h) was put at 0.97 ± 0.6 µM. The inhibition at 10 µM in the data set with SARS-CoV-2 is 91.5%.
Molecule `CNC(=O)c1cc(Oc2ccc(NC(=O)Nc3ccc(Cl)c(C(F)(F)F)c3)cc2)ccn1` [Sorafenib Tosylate] registered a CC50 at 48 h in data set [1] of 1.17 ± 0.43 µM. The IC50 with SARS-CoV-2 is 1.21 µM; in the data set on SARS-CoV-2 (read-out: pIC50 (converted)) it was 1.2 µM. In the data set on SARS-CoV-2, the inhibition at 10 µM turned out to be 78.7%.
In data set [1], `Cc1cccc(C)c1OCC(=O)N[C@@H](Cc1ccccc1)[C@@H](O)C[C@H](Cc1ccccc1)NC(=O)[C@H](C(C)C)N1CCCNC1=O` [Lopinavir (ABT-378), Lopinavir] had a half-maximal cytotoxic concentration (CC50) at 48 h of 2130 ± 3590 µM. Further, the inhibition at 10 µM in the data set with SARS-CoV-2 was determined as 56.6%.
Turning to `CC[C@@H]([C@H](C)O)n1ncn(-c2ccc(N3CCN(c4ccc(OC[C@@H]5CO[C@@](Cn6cncn6)(c6ccc(F)cc6F)C5)cc4)CC3)cc2)c1=O` [Posaconazole], half-maximal cytotoxicity in data set [1] (CC50 at 48 h) was put at 14.6 ± 0.67 µM. In addition, the IC50 with SARS-CoV-2 is 2.37 µM; in the data set on SARS-CoV-2 (read-out: pIC50 (converted)) it was 2.34 µM.
In data set [1], `COC(=O)C[C@](O)(CCCC(C)(C)O)C(=O)O[C@@H]1C(OC)=C[C@]23CCCN2CCc2cc4c(cc2[C@H]13)OCO4` [homoharringtonine] gave a CC50 at 48 h of 1.72 ± 1.89 µM. For the same molecule, the IC50 in the data set with SARS-CoV-2 is 2.25 µM; with SARS-CoV-2 (read-out: pIC50 (converted)), 2.24 µM. Also, in the data set with SARS-CoV-2, the inhibition at 10 µM is 154%.
`Fc1ccc(C(c2ccc(F)cc2)N2CCN(C/C=C/c3ccccc3)CC2)cc1` [flunarizine]: in data set [1], the midpoint of cytotoxicity, the CC50 at 48 h, lay at 137 ± 72.3 µM. Also, the inhibition at 10 µM in the data set with SARS-CoV-2 stood at 79.1%.
Molecule `CC(C)S(=O)(=O)NC[C@H](C)c1ccc(-c2ccc(CCNS(C)(=O)=O)cc2)cc1` [Mibampator] displayed a CC50 at 48 h in data set [1] of 8.66 ± 1.75 µM. The figures for the IC50 with SARS-CoV-2 and in the data set with SARS-CoV-2 (read-out: pIC50 (converted)) were 2.23 µM and 2.24 µM, respectively. The inhibition at 10 µM in the data set with SARS-CoV-2 stood at 90.1%.
In data set [1], `C=CCNc1nc(NCC=C)nc(N2CCN(C(c3ccc(F)cc3)c3ccc(F)cc3)CC2)n1` [Almitrine dimesilate] showed a cytotoxic concentration (CC50) at 48 h of 102 ± 73.6 µM. For the same molecule, the IC50 in the data set with SARS-CoV-2 was 1.21 µM; in the data set on SARS-CoV-2 (read-out: pIC50 (converted)), 1.2 µM. Further, in the data set with SARS-CoV-2, the inhibition at 10 µM was 93.2%.
As for `CO[C@H]1CC[C@H](N2C(=O)CNc3ncc(-c4ccc(C(C)(C)O)nc4)nc32)CC1` [CC-223], in data set [1], it took 9.49 ± 2.55 µM to reach half-maximal cytotoxicity (CC50 at 48 h). In addition, in the data set with SARS-CoV-2, the IC50 amounted to 23.6 µM and the inhibition at 10 µM was 104%. The IC50 in the data set with SARS-CoV-2 (read-out: pIC50 (converted)) is 23.4 µM.
`CCOc1ccc(/C=C2\NCCc3cc(OCC)c(OCC)cc32)cc1OCC` [drotaverine]: the CC50 at 48 h in data set [1] is 9 ± 0.96 µM. Besides, in the data set with SARS-CoV-2, the inhibition at 10 µM was found to be 93.1%.
In the case of `C[C@@H](c1nc(-c2ccc(C#N)cc2)cs1)[C@](O)(Cn1cncn1)c1ccc(F)cc1F` [ravuconazole], the CC50 at 48 h in data set [1] is 12.8 ± 0.84 µM. In addition, in the data set on SARS-CoV-2, the IC50 amounted to 2 µM and the inhibition at 10 µM was 103%. Further, in the data set with SARS-CoV-2 (read-out: pIC50 (converted)), the IC50 is 2 µM.
Regarding `Cc1cccc(C)c1NC(=O)CN1CCN(CCCC(c2ccc(F)cc2)c2ccc(F)cc2)CC1` [lidoflazine], the CC50 at 48 h in data set [1] was determined as 31.9 ± 11 µM. Moreover, in the data set with SARS-CoV-2, the IC50 is 21.3 µM and the inhibition at 10 µM came out at 95.9%. The IC50 in the data set with SARS-CoV-2 (read-out: pIC50 (converted)) was 21.4 µM.
